From patent US8420012B2, “Use of monochlorourea to treat industrial waters” (Hercules Incorporated, priority 2009, dated 2013)

Assays:
[1] = test system: Staphylococcus warneri; assay: Log reduction in populations of Staphylococcus warneri (Example 9); assay type: cell-based; settings: S. warneri, 1.5 ppm, average of two
Method: (§1) N-chloro-N,N′-bishydroxymethylurea can be synthesized in the same manner as N-chloro-N,N′-dimethylurea. The bishydroxyurea (1.0 g, 8.33 mmol) was added to methanol (60 mL) in a 250 mL round bottom flask equipped with a magnetic stir bar without cooling. Another aliquot of methanol (20 mL) was added to a small vial. T-butyl hypochlorite (0.75 mL, 6.66 mmol) was diluted in the vial with methanol, and this solution was subsequently added to the urea solution over a period of less than five minutes. The combined solution was stirred for up to another two hours. The solvent was removed in vacuo, resulting in a colorless and transparent oil that solidified upon prolonged standing. The solid was characterized by ^1H NMR which indicated it was 20-30% N-chloro-N,N′-bishydroxymethylurea.

[2] = test system: Pseudomonas aeruginosa; assay: Log reduction in populations of Pseudomonas aeruginosa (Example 9); assay type: cell-based; settings: P. aeruginosa, 0.3 ppm, average of two
Method: as §1

[3] = Stability in the presence of chlorine demand (0.1× nutrient broth), total chlorine by Hach DPD; assay type: physicochemical; settings: 5 ppm chlorine
Method: This can be seen in Table 4 below. 20 mL aliquots of a 0.1× nutrient broth were used and the active species added such that the initial concentration of each was equivalent to 5 ppm chlorine as measured by the Hach. To prepare the nutrient broth Difco Nutrient Broth (8 grams) was dissolved in 1 L of deionized water, and subsequently diluted to 0.1× of the initial concentration prior to being autoclaved at 121° C. for 15 minutes. 100 mL solutions of each of the actives were made, and the concentration was measured using standard Hach test procedures on a BetzDearborn DR 2010 Spectrophotometer. At each time point a 1:10 dilution of the solution in DI water was made and placed in the spectrophotometer cell. Hach Permachem DPD Total Chlorine Reagent was added and the cell was placed into the spectrophotometer. The ppm of Cl2 was measured at 0, 1, 3, 6, 24, and 48 hours. A fresh dilution was made at each time point, if necessary, and the bottles of solution were placed in a shaking incubator at 37° C. in between runs. Dimethyl monochlorourea is notated as DMCU. Bis-hydroxymethyl chlorourea is BHMCU.

[4] = as above; assay type: physicochemical; settings: 72 h, 5 ppm chlorine

O=C(NCO)N(Cl)CO [BHMCU, N-chloro-N,N′-bishydroxymethylurea]
Log Reduction ([1]; 1 hr exposure): 6.37
Log Reduction ([1]; 2 hr exposure): 6.52
Log Reduction ([2]; 1 hr exposure): 3.63
Log Reduction ([2]; 2 hr exposure): 6.98
Stability: total chlorine remaining relative to initial ([3]; 0 h): 100%
Stability: total chlorine remaining relative to initial ([3]; 1 h): 70%
Stability: total chlorine remaining relative to initial ([3]; 3 h): 49%
Stability: total chlorine remaining relative to initial ([3]; 6 h): 38%
Stability: total chlorine remaining relative to initial [4]: 3%
